# pIC50: −log10 of the molar value.
# Molecular target: GCN2 (Homo sapiens, UniProt Q9P2K8)
# Test: TR-FRET biochemical assay for inhibition of GCN2 (Example 106, for Example 1-4BB)
# Chain of GCN2 (Q9P2K8 whole entry): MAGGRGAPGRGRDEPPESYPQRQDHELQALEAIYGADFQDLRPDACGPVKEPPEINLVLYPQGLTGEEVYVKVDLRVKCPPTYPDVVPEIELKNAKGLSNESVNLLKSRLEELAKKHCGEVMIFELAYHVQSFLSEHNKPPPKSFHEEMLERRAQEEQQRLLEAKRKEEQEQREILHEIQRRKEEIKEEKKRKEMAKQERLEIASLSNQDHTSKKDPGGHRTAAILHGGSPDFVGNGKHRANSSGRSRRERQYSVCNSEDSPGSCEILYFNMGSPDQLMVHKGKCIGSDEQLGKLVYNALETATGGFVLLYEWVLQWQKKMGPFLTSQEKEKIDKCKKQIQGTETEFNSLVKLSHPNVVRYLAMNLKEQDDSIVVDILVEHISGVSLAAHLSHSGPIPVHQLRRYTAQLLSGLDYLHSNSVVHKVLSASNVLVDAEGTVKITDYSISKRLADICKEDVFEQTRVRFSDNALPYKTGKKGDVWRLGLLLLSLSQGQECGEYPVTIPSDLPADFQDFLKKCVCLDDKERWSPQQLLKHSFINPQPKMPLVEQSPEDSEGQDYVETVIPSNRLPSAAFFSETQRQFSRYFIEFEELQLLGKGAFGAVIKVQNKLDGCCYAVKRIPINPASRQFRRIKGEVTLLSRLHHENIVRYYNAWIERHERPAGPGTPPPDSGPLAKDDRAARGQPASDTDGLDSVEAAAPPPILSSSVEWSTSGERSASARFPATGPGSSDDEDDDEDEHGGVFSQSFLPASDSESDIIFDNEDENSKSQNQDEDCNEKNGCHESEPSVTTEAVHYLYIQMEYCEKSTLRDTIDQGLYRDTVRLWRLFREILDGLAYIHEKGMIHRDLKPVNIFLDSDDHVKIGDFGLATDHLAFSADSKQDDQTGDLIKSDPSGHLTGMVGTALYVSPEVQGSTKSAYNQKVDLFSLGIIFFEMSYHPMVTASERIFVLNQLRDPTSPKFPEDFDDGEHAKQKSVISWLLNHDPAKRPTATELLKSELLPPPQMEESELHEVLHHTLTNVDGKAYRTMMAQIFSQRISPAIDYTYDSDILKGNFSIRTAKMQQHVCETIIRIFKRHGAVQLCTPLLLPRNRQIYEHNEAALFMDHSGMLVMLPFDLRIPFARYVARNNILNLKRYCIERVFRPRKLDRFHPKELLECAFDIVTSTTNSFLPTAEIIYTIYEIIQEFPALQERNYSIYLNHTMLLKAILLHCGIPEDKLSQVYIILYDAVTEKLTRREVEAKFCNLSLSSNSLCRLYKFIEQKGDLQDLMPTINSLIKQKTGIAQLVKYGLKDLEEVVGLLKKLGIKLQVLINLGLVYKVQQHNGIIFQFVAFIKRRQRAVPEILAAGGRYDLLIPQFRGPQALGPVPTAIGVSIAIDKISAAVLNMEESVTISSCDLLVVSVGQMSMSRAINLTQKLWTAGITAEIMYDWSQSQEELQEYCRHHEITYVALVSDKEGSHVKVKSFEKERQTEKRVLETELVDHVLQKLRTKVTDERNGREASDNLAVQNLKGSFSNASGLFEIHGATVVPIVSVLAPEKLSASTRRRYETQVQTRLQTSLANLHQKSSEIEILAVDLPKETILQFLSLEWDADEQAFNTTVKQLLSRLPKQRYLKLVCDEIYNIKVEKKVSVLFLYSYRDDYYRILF
pIC50 (Table 9),pIC50 (Table 8),SMILES
5.60 to 6.30,,"COc1cccc(-c2n[nH]c3c(F)c(-c4c(F)ccc(NS(=O)(=O)c5cc(F)cnc5C)c4F)ccc23)n1 [Example 14, N-(2,4-Difluoro-3-(7-fluoro-3-(6-methoxypyridin-2-yl)-1H-indazol-6-yl)phenyl)-5-fluoro-2-methylpyridine-3-sulfonamide]"
,> 6.30,"O=S(=O)(Nc1ccc(F)c(-c2ccc3c(-c4ncc[nH]4)n[nH]c3c2)c1F)c1cc(Cl)ccc1Cl [Example 2AV, N-(3-(3-(1H-imidazol-2-yl)-1H-indazol-6-yl)-2,4-difluorophenyl)-2,5-dichlorobenzenesulfonamide]"
< 5.00,,"Cc1ncccc1S(=O)(=O)Nc1ncc(F)c(-c2ccc3c(-c4ncc[nH]4)n[nH]c3c2F)c1F [Example 3L, N-(3,5-difluoro-4-(7-fluoro-3-(1H-imidazol-2-yl)-1H-indazol-6-yl)pyridin-2-yl)-2-methylpyridine-3-sulfonamide]"
> 6.30,,"COc1ncc(F)cc1S(=O)(=O)Nc1ccc(C#N)c(-c2ccc3c(C(=O)NCCCO)n[nH]c3c2F)c1F [Example 3CA, 6-(6-cyano-2-fluoro-3-((5-fluoro-2-methoxypyridine)-3-sulfonamido)phenyl)-7-fluoro-N-(3-hydroxypropyl)-1H-indazole-3-carboxamide]"
> 6.30,,"COc1ncc(F)cc1S(=O)(=O)Nc1cccc(-c2ccc3c(-c4nc(CO)c[nH]4)n[nH]c3c2F)c1F [Example 13, 5-Fluoro-N-(2-fluoro-3-(7-fluoro-3-(4-(hydroxymethyl)-1H-imidazol-2-yl)-1H-indazol-6-yl)phenyl)-2-methoxypyridine-3-sulfonamide]"
5.60 to 6.30,,"COc1ncc(Cl)cc1S(=O)(=O)Nc1ccc(F)c(-c2ccc3c(C(=O)Nc4nnn(C)n4)n[nH]c3c2F)c1F [Example 3CZ, 6-(3-((5-chloro-2-methoxy-pyridine)-3-sulfonamido)-2,6-difluorophenyl)-7-fluoro-N-(2-methyl-2H-tetrazol-5-yl)-1H-indazole-3-carboxamide]"
5.00 to 5.60,,"O=C(NCCCO)c1n[nH]c2c(F)c(-c3c(F)ccc(NS(=O)(=O)c4cccn5ccnc45)c3F)ccc12 [Example 3AR, 6-(2,6-difluoro-3-(imidazo-[1,2-a]pyridine-8-sulfon-amido)phenyl)-7-fluoro-N-(3-hydroxypropyl)-1H-indazole-3-carboxamide]"
> 6.30,,"Cc1ncc(F)cc1S(=O)(=O)Nc1ccc(F)c(-c2ccc3c(C(=O)Nc4cnoc4)n[nH]c3c2F)c1F [Example 3DQ, 6-(2,6-difluoro-3-((5-fluoro-2-methylpyridine)-3-sulfonamido)phenyl)-7-fluoro-N-(isoxazol-4-yl)-1H-indazole-3-carboxamide]"
> 6.30,,"COc1ncc(Cl)cc1S(=O)(=O)Nc1cc(F)cc(-c2ccc3c(C(=O)N[C@H]4CCN(C)C4)n[nH]c3c2F)c1F [Example 3BM, 6-(3-((5-chloro-2-methoxy-pyridine)-3-sulfonamido)-2,5-difluorophenyl)-7-fluoro-N-((S)-1-methylpyrrolidin-3-yl)-1H-indazole-3-carboxamide]"
> 6.30,,"COc1ncc(F)cc1S(=O)(=O)Nc1ccc(F)c(-c2ccc3c(C(=O)Nc4cnn(C)c4)n[nH]c3c2F)c1F [Example 3Z, 6-(2,6-difluoro-3-((5-fluoro-2-methoxypyridine)-3-sulfonamido)phenyl)-7-fluoro-1H-(1-methyl-1H-pyrazol-4-yl)-1H-indazole-3-carboxamide]"
> 6.30,,"COc1ncc(Cl)cc1S(=O)(=O)Nc1cc(F)cc(-c2ncc3c(-c4ncc[nH]4)n[nH]c3c2F)c1F [Example 36, 5-chloro-N-[2,5-difluoro-3-[7-fluoro-3-(1H-imidazol-2-yl)-1H-pyrazolo[4,3-c]pyridin-6-yl]phenyl]-2-methoxy-pyridine-3-sulfonamide]"
,> 6.30,"COc1ncc(Cl)cc1S(=O)(=O)Nc1ncnc(-c2ccc3c(-c4ncc[nH]4)n[nH]c3c2F)c1F [Example 2AK, 5-chloro-N-(5-fluoro-6-(7-fluoro-3-(1H-imidazol-2-yl)-1H-indazol-6-yl)pyrimidin-4-yl)-2-methoxypyridine-3-sulfonamide]"
> 6.30,,"COc1ncc(F)cc1S(=O)(=O)Nc1cc(F)cc(-c2ccc3c(-c4ncc[nH]4)n[nH]c3c2F)c1F [Example 3AS, N-(2,5-difluoro-3-(7-fluoro-3-(1H-imidazol-2-yl)-1H-indazol-6-yl)phenyl)-5-fluoro-2-methoxypyridine-3-sulfonamide]"
,5.60 to 6.30,"COc1ncc(Cl)cc1S(=O)(=O)Nc1ccc(F)c(-c2ccc3c(C(=O)N(C)C)n[nH]c3c2F)c1F [Example 2AS, 6-(3-((5-chloro-2-methoxy-pyridine)-3-sulfonamido)-2,6-difluorophenyl)-7-fluoro-N,N-dimethyl-1H-indazole-3-carboxamide]"
> 6.30,,"COc1ncc(Cl)cc1S(=O)(=O)Nc1ccc(F)c(-c2ccc3c(C(=O)Nc4cnn(CCO)c4)n[nH]c3c2F)c1F [Example 3CT, 6-(3-((5-chloro-2-methoxy-pyridine)-3-sulfonamido)-2,6-difluorophenyl)-7-fluoro-N-(1-(2-hydroxyethyl)-1H-pyrazol-4-yl)-1H-indazole-3-carboxamide]"
> 6.30,,"COc1ncc(F)cc1S(=O)(=O)Nc1ccc(F)c(-c2ccc3c(C(=O)NCC[C@@H](O)CO)n[nH]c3c2F)c1F [Example 3BF, 6-(2,6-difluoro-3-((5-fluoro-2-methoxypyridine)-3-sulfonamido)phenyl)-N-((R)-3,4-dihydroxybutyl)-7-fluoro-1H-indazole-3-carboxamide]"
> 6.30,,"COc1nc(C)c(Cl)cc1S(=O)(=O)Nc1ccc(F)c(-c2ccc3c(-c4ncc[nH]4)n[nH]c3c2F)c1F [Example 3DD, 5-chloro-N-(2,4-difluoro-3-(7-fluoro-3-(1H-imidazol-2-yl)-1H-indazol-6-yl)phenyl)-2-methoxy-6-methylpyridine-3-sulfonamide]"
,> 6.30,"Cc1cccc(S(=O)(=O)Nc2ccc(F)c(-c3ccc4c(-c5ncc[nH]5)n[nH]c4c3F)c2F)c1C [Example 2AI, N-(2,4-difluoro-3-(7-fluoro-3-(1H-imidazol-2-yl)-1H-indazol-6-yl)phenyl)-2,3-dimethylbenzenesulfonamide]"
> 6.30,,"COc1ncc(F)cc1S(=O)(=O)Nc1cccc(-c2ccc3c(C(N)=O)n[nH]c3c2F)c1F [Example 3AN, 7-fluoro-6-(2-fluoro-3-((5-fluoro-2-methoxypyridine)-3-sulfonamido)phenyl)-1H-indazole-3-carboxamide]"
> 6.30,,"COc1ncc(F)cc1S(=O)(=O)Nc1ccc(F)c(-c2ccc3c(C(=O)NC[C@H](O)CO)n[nH]c3c2F)c1F [Example 3AI, 6-(2,6-difluoro-3-((5-fluoro-2-methoxypyridine)-3-sulfonamido)phenyl)-N-((R)-2,3-dihydroxypropyl)-7-fluoro-1H-indazole-3-carboxamide]"
5.00 to 5.60,,"NC(=O)c1n[nH]c2c(F)c(-c3c(F)ccc(NS(=O)(=O)c4cccn5ccnc45)c3F)ccc12 [Example 3AA, 6-(2,6-difluoro-3-(imidazo-[1,2-a]pyridine-8-sulfon-amido)phenyl)-7-fluoro-1H-indazole-3-carboxamide]"
,> 6.30,"COc1cccc(S(=O)(=O)Nc2ccc(F)c(-c3ccc4c(-c5ncc[nH]5)n[nH]c4c3F)c2F)c1F [Example 2AP, N-(2,4-difluoro-3-(7-fluoro-3-(1H-imidazol-2-yl)-1H-indazol-6-yl)phenyl)-2-fluoro-3-methoxybenzene-sulfonamide]"
> 6.30,,"COc1ncc(F)cc1S(=O)(=O)Nc1ccc(F)c(-c2ccc3c(C(=O)NCC[C@H](O)CO)n[nH]c3c2F)c1F [Example 3BE, 6-(2,6-difluoro-3-((5-fluoro-2-methoxypyridine)-3-sulfonamido)phenyl)-N-((S)-3,4-dihydroxybutyl)-7-fluoro-1H-indazole-3-carboxamide]"
> 6.30,,"COc1nc(C)c(C#N)cc1S(=O)(=O)Nc1ccc(F)c(-c2ccc3c(-c4ncc[nH]4)n[nH]c3c2F)c1F [Example 3DK, 5-cyano-N-(2,4-difluoro-3-(7-fluoro-3-(1H-imidazol-2-yl)-1H-indazol-6-yl)phenyl)-2-methoxy-6-methylpyridine-3-sulfonamide]"
,> 6.30,"COc1ncc(Cl)cc1S(=O)(=O)Nc1cccc(-c2ccc3c(-c4ncc[nH]4)n[nH]c3c2F)c1C#N [Example 2AD, 5-chloro-N-(2-cyano-3-(7-fluoro-3-(1H-imidazol-2-yl)-1H-indazol-6-yl)phenyl)-2-methoxypyridine-3-sulfonamide]"
,> 6.30,"COc1ncc(Cl)cc1S(=O)(=O)Nc1cccc(-c2ccc3c(-c4ncc[nH]4)n[nH]c3c2F)c1F [Example 2M, 5-chloro-N-(2-fluoro-3-(7-fluoro-3-(1H-imidazol-2-yl)-1H-indazol-6-yl)phenyl)-2-methoxy-pyridine-3-sulfonamide]"
> 6.30,,"COc1ncc(F)cc1S(=O)(=O)Nc1ccc(F)c(-c2ccc3c(-c4nc(C(N)=O)c[nH]4)n[nH]c3c2F)c1F [Example 20, 2-(6-(2,6-Difluoro-3-((5-fluoro-2-methoxypyridine)-3-sulfonamido)phenyl)-7-fluoro-1H-indazol-3-yl)-1H-imidazole-4-carboxamide]"
> 6.30,,"COc1ncc(Cl)cc1S(=O)(=O)Nc1cc(F)cc(-c2ccc3c(C(=O)N[C@@H]4CCN(C)C4)n[nH]c3c2F)c1F [Example 3BL, 6-(3-((5-chloro-2-methoxy-pyridine)-3-sulfonamido)-2,5-difluorophenyl)-7-fluoro-N-((R)-1-methylpyrrolidin-3-yl)-1H-indazole-3-carboxamide]"
,> 6.30,"COc1ccc(Cl)c(S(=O)(=O)Nc2ccc(F)c(-c3ccc4c(-c5ncc[nH]5)n[nH]c4c3F)c2F)c1 [Example 2BA, 2-chloro-N-(2,4-difluoro-3-(7-fluoro-3-(1H-imidazol-2-yl)-1H-indazol-6-yl)phenyl)-5-methoxybenzene-sulfonamide]"
> 6.30,,"COc1ncc(F)cc1S(=O)(=O)Nc1ccc(F)c(-c2ccc3c(C(=O)Nc4cnoc4)n[nH]c3c2F)c1F [Example 3BN, 6-(2,6-difluoro-3-((5-fluoro-2-methoxypyridine)-3-sulfonamido)phenyl)-7-fluoro-N-(isoxazol-4-yl)-1H-indazole-3-carboxamide]"

# Source: patent US20220388964A1 (HiberCell, Inc., priority 2019, published 2022)
